Read-outs that look alike come from different tables or passages of the source.
Tested on: HCV 1b genotype
Assay: HCV Replicon assay (HCV 1b genotype)
Format: cell-based, Hepatitis C virus
Conditions: Hepatitis C virus, HCV 1b genotype replicon
In short: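 HCV-neo replicon cells, wild-type plus lines carrying NS5A-region mutations, were exposed to compound; luciferase-reporter replicon variants were also used.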

[1] = class symbol, read-out: Range (EC50 values against HCV 1b)
[2] = Effective 50% inhibitory concentration, read-out: 1b EC50

SMILES | EC50 [1] | EC50 [2]
COC(=O)N[C@H](C(=O)N1C[C@@H](C)C[C@H]1c1nc(-c2ccc(C#Cc3ccc(-c4[nH]c([C@@H]5C[C@H](C)CN5C(=O)[C@@H](NC(=O)OC)C5CCOCC5)nc4Cl)cc3)cc2)c[nH]1)C1CCOCC1 [Example M12.6, methyl ((1S)-2-((2S,4S)-2-(4-(4-((4-(4-chloro-2-((2S,4S)-1-((2S)-2-((methoxycarbonyl)amino)-2-(tetrahydro-2H-pyran-4-yl)acetyl)-4-methyl-2-pyrrolidinyl)-1H-imidazol-5-yl)phenyl)ethynyl)phenyl)-1H-imidazol-2-yl)-4-methyl-1-pyrrolidinyl)-2-oxo-1-(tetrahydro-2H-pyran-4-yl)ethyl)carbamate] | 0.002 to 0.099 nM | 
COC(=O)N[C@H](C(=O)N1C[C@@H](C)C[C@H]1c1nc(Cl)c(-c2ccc(C#Cc3ccc(-c4[nH]c([C@@H]5C[C@H](C)CN5C(=O)[C@@H](NC(=O)OC)C5CCOCC5)nc4Cl)cc3)cc2)[nH]1)C1CCOCC1 [Example M12.7, dimethyl (1,2-ethynediylbis(4,1-phenylene(4-chloro-1H-imidazole-5,2-diyl)((2S,4S)-4-methyl-2,1-pyrrolidinediyl)((1S)-2-oxo-1-(tetrahydro-2H-pyran-4-yl)-2,1-ethanediyl)))biscarbamate] | 0.002 to 0.099 nM | 0.061 nM
COC(=O)N[C@H](C(=O)N1C[C@@H](C)C[C@H]1c1ncc(-c2ccc(C#Cc3ccc(-c4cnc([C@@H]5C[C@H](C)CN5C(=O)[C@@H](NC(=O)OC)C5CCOCC5)[nH]4)cc3)cc2)[nH]1)C(C)C [Example M12.8, methyl ((1S)-2-((2S,4S)-2-(4-(4-((4-(2-((2S,4S)-1-((2S)-2-((methoxycarbonyl)amino)-3-methylbutanoyl)-4-methyl-2-pyrrolidinyl)-1H-imidazol-4-yl)phenyl)ethynyl)phenyl)-1H-imidazol-2-yl)-4-methyl-1-pyrrolidinyl)-2-oxo-1-(tetrahydro-2H-pyran-4-yl)ethyl)carbamate] | 0.002 to 0.099 nM | 
COC(=O)N[C@H](C(=O)N1[C@H]2C[C@@]2(C)C[C@H]1c1ncc(-c2ccc(C#Cc3ccc(-c4cnc([C@@H]5C[C@]6(C)C[C@@H]6N5C(=O)[C@@H](NC(=O)OC)C(C)C)[nH]4)cc3)cc2)[nH]1)C(C)C [Example M12.9, methyl ((1S)-1-(((1S,3S,5S)-3-(4-(4-((4-(2-((1S,3S,5S)-2-((2S)-2-((methoxycarbonyl)amino)-3-methylbutanoyl)-5-methyl-2-azabicyclo[3.1.0]hex-3-yl)-1H-imidazol-4-yl)phenyl)ethynyl)phenyl)-1H-imidazol-2-yl)-5-methyl-2-azabicyclo[3.1.0]hex-2-yl)carbonyl)-2-methylpropyl)carbamate] | 0.002 to 0.099 nM | 
COC(=O)N[C@H](C(=O)N1[C@@H]2C[C@@H]2C[C@H]1c1ncc(-c2ccc(/C=C/c3ccc(-c4cnc([C@@H]5C[C@H]6C[C@H]6N5C(=O)[C@@H](NC(=O)OC)C(C)C)[nH]4)cc3)cc2)[nH]1)C(C)C [Example M13, methyl ((1S)-1-(((1R,3S,5R)-3-(4-(4-((E)-2-(4-(2-((1R,3S,5R)-2-((2S)-2-((methoxycarbonyl)amino)-3-methylbutanoyl)-2-azabicyclo[3.1.0]hex-3-yl)-1H-imidazol-4-yl)phenyl)vinyl)phenyl)-1H-imidazol-2-yl)-2-azabicyclo[3.1.0]hex-2-yl)carbonyl)-2-methylpropyl)carbamate] | 0.002 to 0.099 nM | 
COC(=O)N[C@H](C(=O)N1[C@@H]2C[C@@H]2C[C@H]1c1nc(-c2ccc(/C=C/c3ccc(-c4c[nH]c([C@@H]5C[C@H]6C[C@H]6N5C(=O)[C@@H](NC(=O)OC)C5CCOCC5)n4)cc3)cc2)c[nH]1)C1CCOCC1 [Example M14, dimethyl ((E)-1,2-ethenediylbis(4,1-phenylene-1H-imidazole-4,2-diyl(1R,3S,5R)-2-azabicyclo[3.1.0]hexane-3,2-diyl((1S)-2-oxo-1-(tetrahydro-2H-pyran-4-yl)-2,1-ethanediyl)))biscarbamate] | 0.002 to 0.099 nM | 0.017 nM
COC(=O)N[C@H](C(=O)N1[C@@H]2C[C@@H]2C[C@H]1c1nc(-c2ccc(/C=C/c3ccc(-c4c[nH]c([C@@H]5C[C@H]6C[C@H]6N5C(=O)[C@@H](NC(=O)OC)C5CCOCC5)n4)cc3)cc2)c[nH]1)C(C)C [Example M15, methyl ((1S)-2-((1R,3S,5R)-3-(4-(4-((E)-2-(4-(2-((1R,3S,5R)-2-((2S)-2-((methoxycarbonyl)amino)-3-methylbutanoyl)-2-azabicyclo[3.1.0]hex-3-yl)-1H-imidazol-4-yl)phenyl)vinyl)phenyl)-1H-imidazol-2-yl)-2-azabicyclo[3.1.0]hex-2-yl)-2-oxo-1-(tetrahydro-2H-pyran-4-yl)ethyl)carbamate] | 0.002 to 0.099 nM | 
COC(=O)N[C@H](C(=O)N1CC(F)(F)C[C@H]1c1nc(-c2ccc(C#Cc3ccc(-c4c[nH]c([C@@H]5CC(F)(F)CN5C(=O)[C@@H](NC(=O)OC)C(C)C)n4)cc3)cc2)c[nH]1)C(C)C [Example N1, methyl ((1S)-1-(((2S)-2-(4-(4-((4-(2-((2S)-4,4-difluoro-1-((2S)-2-((methoxycarbonyl)amino)-3-methylbutanoyl)-2-pyrrolidinyl)-1H-imidazol-4-yl)phenyl)ethynyl)phenyl)-1H-imidazol-2-yl)-4,4-difluoro-1-pyrrolidinyl)carbonyl)-2-methylpropyl)carbamate] | 0.002 to 0.099 nM | 
COC(=O)N[C@H](C(=O)N1CC(F)(F)C[C@H]1c1ncc(-c2ccc(C#Cc3ccc(-c4cnc([C@@H]5CC(F)(F)CN5C(=O)[C@@H](NC(=O)OC)C5CCOCC5)[nH]4)cc3)cc2)[nH]1)C1CCOCC1 [Example N2, dimethyl (ethyne-1,2-diylbis(4,1-phenylene-1H-imidazole-5,2-diyl((2S)-4,4-difluoropyrrolidine-2,1-diyl)((1S)-2-oxo-1-(tetrahydro-2H-pyran-4-yl)ethane-2,1-diyl)))biscarbamate] | 0.002 to 0.099 nM | 
COC(=O)N[C@H](C(=O)N1CC(F)(F)C[C@H]1c1ncc(-c2ccc(C#Cc3ccc(-c4cnc([C@@H]5CC(F)(F)CN5C(=O)[C@H](NC(=O)OC)C5CCOCC5)[nH]4)cc3)cc2)[nH]1)C1CCOCC1 [Example N3, methyl ((1R)-2-((2S)-2-(5-(4-((4-(2-((2S)-4,4-difluoro-1-((2S)-2-((methoxycarbonyl)amino)-2-(tetrahydro-2H-pyran-4-yl)acetyl)pyrrolidin-2-yl)-1H-imidazol-5-yl)phenyl)ethynyl)phenyl)-1H-imidazol-2-yl)-4,4-difluoropyrrolidin-1-yl)-2-oxo-1-(tetrahydro-2H-pyran-4-yl)ethyl)carbamate] | 10 to 350 nM | 0.25 nM
COC(=O)N[C@@H](C(=O)N1CC(F)(F)C[C@H]1c1ncc(-c2ccc(C#Cc3ccc(-c4cnc([C@@H]5CC(F)(F)CN5C(=O)[C@H](NC(=O)OC)C5CCOCC5)[nH]4)cc3)cc2)[nH]1)C1CCOCC1 [Example N4, dimethyl (ethyne-1,2-diylbis(4,1-phenylene-1H-imidazole-5,2-diyl((2S)-4,4-difluoropyrrolidine-2,1-diyl)((1R)-2-oxo-1-(tetrahydro-2H-pyran-4-yl)ethane-2,1-diyl)))biscarbamate] | 10 to 350 nM | 0.18 nM
COC(=O)N[C@H](C(=O)N1CCCC[C@H]1c1ncc(-c2ccc(C#Cc3ccc(-c4cnc([C@@H]5CCCCN5C(=O)[C@@H](NC(=O)OC)C(C)C)[nH]4)cc3)cc2)[nH]1)C(C)C [Example N6, methyl ((1S)-1-(((2S)-2-(4-(4-((4-(2-((2S)-1-((2S)-2-((methoxycarbonyl)amino)-3-methylbutanoyl)-2-piperidinyl)-1H-imidazol-4-yl)phenyl)ethynyl)phenyl)-1H-imidazol-2-yl)-1-piperidinyl)carbonyl)-2-methylpropyl)carbamate] | 10 to 350 nM | 
COC(=O)N[C@H](C(=O)N1C[C@@H](O)C[C@H]1c1ncc(-c2ccc(C#Cc3ccc(-c4cnc([C@@H]5C[C@H](O)CN5C(=O)[C@@H](NC(=O)OC)C(C)C)[nH]4)cc3)cc2)[nH]1)C(C)C [Example N7, methyl ((1S)-1-(((2S,4S)-4-hydroxy-2-(4-(4-((4-(2-((2S,4S)-4-hydroxy-1-((2S)-2-((methoxycarbonyl)amino)-3-methylbutanoyl)-2-pyrrolidinyl)-1H-imidazol-4-yl)phenyl)ethynyl)phenyl)-1H-imidazol-2-yl)-1-pyrrolidinyl)carbonyl)-2-methylpropyl)carbamate] | 0.002 to 0.099 nM | 
COC(=O)N[C@H](C(=O)N1[C@H](c2ncc(-c3ccc(C#Cc4ccc(-c5cnc([C@@H]6C[C@@H]7C[C@@H]7N6C(=O)[C@@H](NC(=O)OC)C(C)C)[nH]5)cc4)cc3)[nH]2)C[C@@H]2C[C@@H]21)C(C)C [Example N8, methyl((1S)-1-(((1S,3S,5S)-3-(4-(4-((4-(2-((1S,3S,5S)-2-((2S)-2-((methoxycarbonyl)amino)-3-methylbutanoyl)-2-azabicyclo[3.1.0]hex-3-yl)-1H-imidazol-4-yl)phenyl)ethynyl)phenyl)-1H-imidazol-2-yl)-2-azabicyclo[3.1.0]hex-2-yl)carbonyl)-2-methylpropyl)carbamate] | 10 to 350 nM | 
COC(=O)N[C@H](C(=O)N1[C@H](c2ncc(-c3ccc(C#Cc4ccc(-c5cnc([C@@H]6C[C@@H]7C[C@@H]7N6C(=O)[C@@H](NC(=O)OC)C6CCOCC6)[nH]5)cc4)cc3)[nH]2)C[C@@H]2C[C@@H]21)C1CCOCC1 [Example N9, dimethyl (1,2-ethynediylbis(4,1-phenylene-1H-imidazole-4,2-diyl(1S,3S,5S)-2-azabicyclo[3.1.0]hexane-3,2-diyl((1S)-2-oxo-1-(tetrahydro-2H-pyran-4-yl)-2,1-ethanediyl)))biscarbamate] | 0.002 to 0.099 nM | 
CN(C)[C@@H](C(=O)N1CCC[C@H]1c1ncc(-c2ccc(Oc3ccc(-c4cnc([C@@H]5CCCN5C(=O)[C@@H](c5ccccc5)N(C)C)[nH]4)cc3)cc2)[nH]1)c1ccccc1 [OL-1, (1R)-2-((2S)-2-(4-(4-(4-(2-((2S)-1-((2R)-2-(dimethylamino)-2-phenylacetyl)-2-pyrrolidinyl)-1H-imidazol-5-yl)phenoxy)phenyl)-1H-imidazol-2-yl)-1-pyrrolidinyl)-N,N-dimethyl-2-oxo-1-phenylethanamine] | 1 to 9.9 nM | 

— patent US8796466B2, “Hepatitis C virus inhibitors” (Bristol-Myers Squibb Company, priority 2009, dated 2014)
